In patent publication US10610520B2, “Heterocyclic compound” (Takeda Pharmaceutical Company Limited, priority 2016, dated 2020) one finds inhibition data, which are given here for 27 compounds.

Each structure is given as a SMILES string.

In general, inhibition refers to the drop in the measured response relative to a control, in per cent.

This assay deals with T1, His-hMAGL (recombinant polyhistidine tagged human MAGL protein) (Homo sapiens, UniProt Q99685).
T1 construct: made in house; host or cells: E. coli BL21(DE3)
T1 sequence (Q99685 1-303): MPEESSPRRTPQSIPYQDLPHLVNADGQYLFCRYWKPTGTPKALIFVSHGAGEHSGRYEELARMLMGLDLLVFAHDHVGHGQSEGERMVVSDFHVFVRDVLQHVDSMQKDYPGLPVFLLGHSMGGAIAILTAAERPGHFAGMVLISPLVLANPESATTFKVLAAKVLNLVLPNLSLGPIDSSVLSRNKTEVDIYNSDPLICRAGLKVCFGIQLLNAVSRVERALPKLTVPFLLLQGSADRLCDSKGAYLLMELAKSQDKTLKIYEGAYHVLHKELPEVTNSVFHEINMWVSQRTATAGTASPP
Put plainly: Measurement of MAGL inhibitory activity (arachidonic acid production from 2-arachidonylglycerol, RapidFire-mass spectrometry). The assay is classed as biochemical. Conditions: MAGL inhibitory rate, test compound 10 μM, 60 min preincubation, 2-arachidonylglycerol substrate. On the procedure:
The His-hMAGL obtained above was diluted with enzyme reaction buffer (10 mM Tris-HCl, pH 7.5, 1 mM EDTA, 0.025 (w/v) % Triton X-100, 0.01% Bovine serum albumin) to a concentration of 7.5 ng/mL. […] Thereafter, to each well was added 5 μL of 150 μM 2-arachidonylglycerol (Tocris Bioscience), and the mixture was incubated at room temperature for 10 min. Then, 10 μL of 2% formic acid (Wako Pure Chemical Industries, Ltd.) was added to stop the reaction. Furthermore, acetonitrile (50 μL) containing 3 μM arachidonic acid-d8 (Cayman Chemical Company) was added and the mixture was stirred.
The amount of arachidonic acid in the obtained enzyme reaction mixture was calculated by measuring by RapidFire-mass spectrometry and correcting by the amount of arachidonic acid-d8. High Throughput online solid phase extraction was performed using RapidFire 300™ system (Agilent Technologies, Inc.). Samples were loaded on SPE C4 cartridge (Agilent Technologies, Inc.) and desalted with 0.2 (v/v) % acetic acid (Wako Pure Chemical Industries, Ltd.) in ultrapure water/acetonitrile (70/30, v/v) at a flow rate of 1.5 mL/min, eluted at a flow rate of 0.5 mL/min with 0.2 (v/v) % acetic acid dissolved in acetonitrile/ultrapure water (90/10, v/v), and injected into the mass spectrometry part. The injection needle was washed with ultrapure water (500 millisecond) and acetonitrile (500 millisecond) to minimize carry-over. […] The RapidFire300 system was controlled by RapidFire UI software version 3.6 (Agilent Technologies, Inc.).
The mass spectrometry of the resultant product was performed using API4000™ triple quadrupole mass spectrometer (AB SCIEX) equipped with an electrospray ion sauce (TurboIon Spray™) in a negative selected reaction monitoring (SRM) mode. The conditions of SRM are shown below. The parameters of the instrument were optimized as follows: capillary temperature 600° C., ion spray voltage −4.5 kV, collision gas 8, curtain gas 15 psi, ion source gas 1 60 psi, ion source gas 2 60 psi. The mass spectrometer was controlled by Analyst™ software version 1.5.1 (AB SCIEX). The peak area integration was analyzed using RapidFire integrator software version 3.6 (Agilent Technologies, Inc.).
MAGL inhibitory rate (%) was calculated according to the following calculation formula. (1-(arachidonic acid production amount of test compound addition group−arachidonic acid production amount of enzyme-free group)÷(arachidonic acid production amount of test compound-free group−arachidonic acid production amount of enzyme-free group))×100
Take `O=C1NC2(CCN(C(=O)N3CCC(COc4ccc(F)cc4Cl)CC3)C2)CO1` (stereo not drawn) [Example 322, 7-((4-((2-chloro-4-fluorophenoxy)methyl)piperidin-1-yl)carbonyl)-3-oxa-1,7-diazaspiro[4.4]nonan-2-one]: the inhibition at 10 µM was determined as 100%.

For the compound `O=C1CCC2(CN(C(=O)c3sc4cc(-c5ccc(F)c(F)c5)ccc4c3Cl)C2)N1` [Example 216, 2-((3-chloro-6-(3,4-difluorophenyl)-1-benzothiophen-2-yl)carbonyl)-2,5-diazaspiro[3.4]octan-6-one], the inhibition at 10 µM was 100%.

`COc1cccc(-c2ccc3c(Cl)c(C(=O)N4CC5(CCC(=O)N5)C4)sc3c2)c1` [Example 194, 2-((3-chloro-6-(3-methoxyphenyl)-1-benzothiophen-2-yl)carbonyl)-2,5-diazaspiro[3.4]octan-6-one]: the inhibition at 10 µM was 100%.

For the compound `O=C1CCC2(CN(C(=O)N3CCC(Cc4ccc(N5CCCCC5)cc4)CC3)C2)N1` [Example 111, 2-((4-(4-(piperidin-1-yl)benzyl)piperidin-1-yl)carbonyl)-2,5-diazaspiro[3.4]octan-6-one], the inhibition at 10 µM was determined as 101%.

Consider `O=C1CCC2(CN(C(=O)c3ccc(-c4ccc(C(F)(F)F)cc4)cc3)C2)N1` [Example 40, 2-((4′-(trifluoromethyl)biphenyl-4-yl)carbonyl)-2,5-diazaspiro[3.4]octan-6-one], for which the inhibition at 10 µM came out at 98%.

In the case of `CC(C)c1cccc(-c2ccc3c(Cl)c(C(=O)N4CC5(CCC(=O)N5)C4)sc3c2)c1` [Example 188, 2-((3-chloro-6-(3-isopropylphenyl)-1-benzothiophen-2-yl)carbonyl)-2,5-diazaspiro[3.4]octan-6-one], the inhibition at 10 µM came out at 99%.

As to `O=C1NC2(CO1)CN(C(=O)c1sc3cccc(C(F)(F)F)c3c1Cl)C2` [Example 268, 2-((3-chloro-4-(trifluoromethyl)-1-benzothiophen-2-yl)carbonyl)-7-oxa-2,5-diazaspiro[3.4]octan-6-one], the inhibition at 10 µM worked out at 102%.

Turning to `O=C1NC2(CO1)CN(C(=O)c1ccc(-c3cccc(C4(C(F)(F)F)CC4)c3)cc1)C2` [Example 344, 2-((3′-(1-(trifluoromethyl)cyclopropyl)biphenyl-4-yl)carbonyl)-7-oxa-2,5-diazaspiro[3.4]octan-6-one], the inhibition at 10 µM is 99%.

With `O=C1CCC2(CN(C(=O)c3ccc(-c4ccccc4OC(F)(F)F)cc3)C2)N1` [Example 62, 2-((2′-(trifluoromethoxy)biphenyl-4-yl)carbonyl)-2,5-diazaspiro[3.4]octan-6-one], the inhibition at 10 µM was 95%.

For the compound `Cc1ccsc1-c1ccc2c(Cl)c(C(=O)N3CC4(CCC(=O)N4)C3)sc2c1` [Example 235, 2-((3-chloro-6-(3-methyl-2-thienyl)-1-benozthiophen-2-yl)carbonyl)-2,5-diazaspiro[3.4]octan-6-one], the inhibition at 10 µM stood at 100%.

Regarding `O=C1CCC2(CN(C(=O)[C@H]3CC[C@H](c4ccc(O)cc4)CC3)C2)N1` [Example 173, 2-((trans-4-(4-hydroxyphenyl)cyclohexyl)carbonyl)-2,5-diazaspiro[3.4]octan-6-one], the inhibition at 10 µM was found to be 92%.

Turning to `O=C1CCC2(CN(C(=O)c3sc4cc(-c5cccnc5C(F)(F)F)ccc4c3Cl)C2)N1` [Example 230, 2-((3-chloro-6-(2-(trifluoromethyl)pyridin-3-yl)-1-benzothiophen-2-yl)carbonyl)-2,5-diazaspiro[3.4]octan-6-one], the inhibition at 10 µM is 100%.

Take `O=C1NC2(CO1)CN(C(=O)c1sc3cc(F)cc(OC(F)(F)F)c3c1Cl)C2` [Example 314, 2-((3-chloro-6-fluoro-4-(trifluoromethoxy)-1-benzothiophen-2-yl)caarbonyl)-7-oxa-2,5-diazaspiro[3.4]octan-6-one]: the inhibition at 10 µM came out at 101%.

`O=C1CCC2(CN(C(=O)c3sc4cc(-c5c(F)cccc5Cl)ccc4c3Cl)C2)N1` [Example 221, 2-((3-chloro-6-(2-chloro-6-fluorophenyl)-1-benzothiophen-2-yl)carbonyl)-2,5-diazaspiro[3.4]octan-6-one]: the inhibition at 10 µM was 100%.

Take `O=C1CCC2(CN(C(=O)c3sc4cc(-c5cccc(F)c5)ccc4c3Cl)C2)N1` [Example 37, 2-((3-chloro-6-(3-fluorophenyl)-1-benzothiophen-2-yl)carbonyl)-2,5-diazaspiro[3.4]octan-6-one]: the inhibition at 10 µM stood at 99%.

Turning to `O=C1CCC2(CN(C(=O)c3ccc(-c4cccc(C(F)(F)F)c4)c(OC(F)(F)F)c3)C2)N1` [Example 132, 2-((2-(trifluoromethoxy)-3′-(trifluoromethyl)biphenyl-4-yl)carbonyl)-2,5-diazaspiro[3.4]octan-6-one], the inhibition at 10 µM was determined as 99%.

In the case of `O=C1CCC2(CN(C(=O)c3ccc(-c4ccc5c(c4)CCO5)cc3)C2)N1` [Example 95, 2-(4-(2,3-dihydro-1-benzofuran-5-yl)benzoyl)-2,5-diazaspiro[3.4]octan-6-one], the inhibition at 10 µM is 94%.

On to `O=C1CCC2(CN(C(=O)c3sc(-c4cccc(OCC(F)(F)F)c4)cc3Cl)C2)N1` [Example 178, 2-((3-chloro-5-(3-(2,2,2-trifluoroethoxy)phenyl)-2-thienyl)carbonyl)-2,5-diazaspiro[3.4]octan-6-one], for which the inhibition at 10 µM came out at 100%.

Regarding `O=C1CCC2(CN(C(=O)c3cc4cc(OC(F)(F)F)ccc4s3)C2)N1` [Example 252, 2-((5-(trifluoromethoxy)-1-benzothiophen-2-yl)carbonyl)-2,5-diazaspiro[3.4]octan-6-one], the inhibition at 10 µM was 98%.

For the compound `O=C1CCC2(CN(C(=O)c3sc(-c4cccc(OC(F)(F)F)c4)cc3Cl)C2)N1` [Example 248, 2-((3-chloro-5-(3-(trifluoromethoxy)phenyl)-2-thienyl)carbonyl)-2,5-diazaspiro[3.4]octan-6-one], the inhibition at 10 µM was 95%.

Turning to `O=C1CCC2(CN(C(=O)N3CC(COc4ccc(Br)cc4F)C3)C2)N1` [Example 16, 2-((3-((4-bromo-2-fluorophenoxy)methyl)azetidin-1-yl)carbonyl)-2,5-diazaspiro[3.4]octan-6-one], the inhibition at 10 µM worked out at 104%.

With `O=C1NC2(CO1)CN(C(=O)c1sc3c(F)c(OC(F)(F)F)ccc3c1C(F)F)C2` [Example 360, 2-((3-(difluoromethyl)-7-fluoro-6-(trifluoromethoxy)-1-benzothiophen-2-yl)carbonyl)-7-oxa-2,5-diazaspiro[3.4]octan-6-one], the inhibition at 10 µM amounted to 100%.

`O=C1CCC2(CN(C(=O)c3cc4ccc(C(F)(F)F)cc4s3)C2)N1` [Example 30, 2-((6-(trifluoromethyl)-1-benzothiophen-2-yl)carbonyl)-2,5-diazaspiro[3.4]octan-6-one]: the inhibition at 10 µM stood at 94%.

As to `O=C1NC2(CO1)CN(C(=O)c1sc3cc(Cl)ccc3c1Cl)C2` [Example 364, 2-((3,6-dichloro-1-benzothiophen-2-yl)carbonyl)-7-oxa-2,5-diazaspiro[3.4]octan-6-one], the inhibition at 10 µM was 100%.

With `O=C1COCC2(CN(C(=O)N3CCC(COc4ccc(F)cc4Cl)CC3)C2)N1` [Example 243, 2-((4-((2-chloro-4-fluorophenoxy)methyl)piperidin-1-yl)carbonyl)-8-oxa-2,5-diazaspiro[3.5]nonan-6-one], the inhibition at 10 µM worked out at 100%.

For the compound `Cc1ccc(F)c(-c2ccc3c(Cl)c(C(=O)N4CC5(CCC(=O)N5)C4)sc3c2)c1` [Example 202, 2-((3-chloro-6-(2-fluoro-5-methylphenyl)-1-benzothiophen-2-yl)carbonyl)-2,5-diazaspiro[3.4]octan-6-one], the inhibition at 10 µM is 100%.

For `Cc1ccc(-c2ccc3c(Cl)c(C(=O)N4CC5(CCC(=O)N5)C4)sc3c2)c(F)c1` [Example 207, 2-((3-chloro-6-(2-fluoro-4-methylphenyl)-1-benzothiophen-2-yl)carbonyl)-2,5-diazaspiro[3.4]octan-6-one], the inhibition at 10 µM was 99%.
